Measurements: patent US4526893A, “Isocarbostyril derivatives” (priority 1982, dated 1985)
Like-named read-outs stand apart in the source and are kept apart here.

Assays:
[1] = Acute toxicity of active compounds (LD50); settings: in vivo
Excerpt: Beta-blocking agents hitherto known have to be given to hypertensive patients for some period before desirable effects are obtained.

[2] = tested on: spontaneously hypertensive rats; assay: Antihypertensive effect on the spontaneously hypertensive rats; format: in vivo, rat; settings: 30 mg/kg, single oral administration, SHR, average blood pressure by aortic cannula
Procedure: Antihypertensive effect on the spontaneously hypertensive rats Five spontaneous rats (SHR), showing more than […] of systolic blood pressure were used. After a single oral administration, antihypertensive activity of the corresponding compound was evaluated in terms of a decrease in average blood pressure measured by means of a cannula embedded in the aorta.

[3] = target: T1, aorta of rat (Rattus norvegicus, UniProt P23944); assay: cell-based
T1 sequence (P23944 1-561): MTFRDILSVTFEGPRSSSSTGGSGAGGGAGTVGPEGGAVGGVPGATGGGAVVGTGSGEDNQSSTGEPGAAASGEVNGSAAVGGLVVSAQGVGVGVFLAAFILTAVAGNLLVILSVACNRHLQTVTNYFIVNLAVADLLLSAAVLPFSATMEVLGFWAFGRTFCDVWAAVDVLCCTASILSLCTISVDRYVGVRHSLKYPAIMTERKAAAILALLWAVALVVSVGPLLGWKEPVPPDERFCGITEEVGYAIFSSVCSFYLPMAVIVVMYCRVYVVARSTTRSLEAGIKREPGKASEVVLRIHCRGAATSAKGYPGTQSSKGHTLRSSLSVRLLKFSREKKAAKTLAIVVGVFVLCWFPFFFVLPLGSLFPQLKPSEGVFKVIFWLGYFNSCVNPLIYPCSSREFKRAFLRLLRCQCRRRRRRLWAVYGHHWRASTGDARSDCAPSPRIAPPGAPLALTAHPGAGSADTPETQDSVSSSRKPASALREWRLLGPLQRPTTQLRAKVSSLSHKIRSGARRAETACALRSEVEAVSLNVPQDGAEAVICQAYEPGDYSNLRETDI

[4] = target: T2, right artrium of guinea pig (Cavia porcellus, UniProt H0W3H1); assay: β-blocking effect: antagonism of increase of beat rate of right atrium of guinea pig caused by isoproterenol; format: cell-based
T2 construct: beat rate of a right artrium of guinea pig; from tissue; host or cells: guinea pig right atrium
T2 sequence (H0W3H1 1-470): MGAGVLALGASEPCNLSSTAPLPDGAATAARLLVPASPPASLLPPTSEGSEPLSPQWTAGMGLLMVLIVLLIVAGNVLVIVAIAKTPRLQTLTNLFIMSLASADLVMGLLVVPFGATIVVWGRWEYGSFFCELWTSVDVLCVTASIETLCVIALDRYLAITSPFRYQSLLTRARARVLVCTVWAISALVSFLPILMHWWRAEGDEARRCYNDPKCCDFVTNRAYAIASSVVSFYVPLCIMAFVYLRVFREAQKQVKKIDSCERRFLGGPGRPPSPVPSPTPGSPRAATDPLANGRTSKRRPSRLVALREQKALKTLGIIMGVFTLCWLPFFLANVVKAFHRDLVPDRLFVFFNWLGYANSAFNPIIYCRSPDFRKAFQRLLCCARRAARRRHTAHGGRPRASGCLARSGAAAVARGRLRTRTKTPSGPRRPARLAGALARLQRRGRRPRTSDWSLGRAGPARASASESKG
Procedure: This was evaluated in terms of the effect antagonizing an increase of beat rate of a right artrium of guinea pig caused by isoproterenol. Efficiency of blocking by the corresponding compound is expressed in pA2 value (see Van Bossum, Arch. int. Pharmacodyn. Ther. 143, 299, 1963).

[5] = tested on: heart rate; assay: Influence on the heart rate in unanaesthetized dogs; format: in vivo, dog; settings: 10 mg/kg oral
Procedure: 4. Influence on the heart rate This was measured in dogs under unanaesthesized condition after oral administration of the corresponding compound.

[6] = clinical use; cited from earlier work
[7] = pA2 vs phenylephrine, rat aorta, read-out: α-Blocking effect (pA2) (converted)
[8] = pA2 vs isoproterenol, guinea pig right atrium, read-out: β-Blocking effect (pA2) (converted)

## CC(COc1ccc(N)cc1)NCC(O)COc1c[nH]c(=O)c2ccccc12 (centres unmarked) [4-[3-{2-(4-aminophenoxy)-1-methylethylamino}-2-hydroxypropoxy]isocarbostyril]
[1]; iv, I.V., read-out: LD50 I.V.
  LD50: 77.4 mg/kg
[1]; po, P.O., read-out: LD50 P.O.
  LD50: > 2000 mg/kg

## CC(COc1ccccc1)NCC(O)COc1c[nH]c(=O)c2ccccc12.Cl (centres unmarked) [4-[3-(1-methyl-2-phenoxyethyl-amino)-2-hydroxypropoxy]isocarbostyril hydrochloride]
[2]
  Antihypertensive effect: decrease in blood pressure: 15 mm Hg
[3]; [7]
  Kb: 26.9 nM
[4]; [8]
  Kb: 13.2 nM

## COc1ccc(OCC(C)NCC(O)COc2c[nH]c(=O)c3ccccc23)c(OC)c1.Cl (centres unmarked) [4-[3-{2-(2,4-dimethoxyphenoxy)-1-methylethylamino}-2-hydroxypropoxy]isocarbostyril hydrochloride]
[2]
  Antihypertensive effect: decrease in blood pressure: 32 mm Hg
[3]; [7]
  Kb: 63.1 nM
[1]; iv, I.V., read-out: LD50 I.V.
  LD50: 118 mg/kg
[1]; po, P.O., read-out: LD50 P.O.
  LD50: > 2000 mg/kg
[4]; [8]
  Kb: 5.5 nM

## COc1ccc(OCC(C)NCC(O)COc2c[nH]c(=O)c3ccccc23)cc1.Cl (centres unmarked) [4-[3-{2-(4-methoxyphenoxy)-1-methylethylamino}-2-hydroxypropoxy]isocarbostyril hydrochloride]
[2]
  Antihypertensive effect: decrease in blood pressure: 21 mm Hg
[1]; iv, I.V., read-out: LD50 I.V.
  LD50: 137 mg/kg
[1]; po, P.O., read-out: LD50 P.O.
  LD50: > 2000 mg/kg
[4]; [8]
  Kb: 9.55 nM

## CC(COc1ccc(N)cc1)NCC(O)COc1c[nH]c(=O)c2ccccc12.Cl (centres unmarked) [4-[3-{2-(4-aminophenoxy)-1-methylethylamino}-2-hydroxypropoxy]isocarbostyril hydrochloride]
[2]
  Antihypertensive effect: decrease in blood pressure: 31 mm Hg
[4]; [8]
  Kb: 7.24 nM

## COc1ccccc1OCC(C)NCC(O)COc1c[nH]c(=O)c2ccccc12.Cl (centres unmarked) [4-[3-{2-(2-methoxyphenoxy)-1-methylethylamino}-2-hydroxypropoxy]isocarbostyril hydrochloride]
[2]
  Antihypertensive effect: decrease in blood pressure: 35 mm Hg
[3]; [7]
  Kb: 19.5 nM
[4]; [8]
  Kb: 10.7 nM

## CC(C)NCC(O)COc1cccc2ccccc12 (centres unmarked) [Propranolol, reference compound]
[2]
  Antihypertensive effect: decrease in blood pressure: 3 mm Hg
[5]
  Influence on heart rate: change: Decrease

## CC(CCc1ccccc1)NCC(O)c1ccc(O)c(C(N)=O)c1 (centres unmarked) [Labetalol, reference compound]
[6]
  orthostatic hypotension (in words): serious adverse reaction
[2]
  Antihypertensive effect: decrease in blood pressure: 31 mm Hg
[3]
  Kb: 41.7 nM
[5]
  Influence on heart rate: change: Increase
[4]
  Kb: 38 nM

## CC(COc1ccccc1C(N)=O)NCC(O)COc1c[nH]c(=O)c2ccccc12 (centres unmarked) [4-[3-{2-(2-carbamoylphenoxy)-1-methylethylamino}-2-hydroxypropy]isocarbostyril]
[2]
  Antihypertensive effect: decrease in blood pressure: 10 mm Hg
[4]; [8]
  Kb: 14.8 nM

## CC(COc1ccc([N+](=O)[O-])cc1)NCC(O)COc1c[nH]c(=O)c2ccccc12.Cl (centres unmarked) [4-[3-{1-methyl-2-(4-nitrophenoxy)ethylamino}-2-hydroxypropoxy]isocarbostyril hydrochloride]
[2]
  Antihypertensive effect: decrease in blood pressure: 17 mm Hg
[4]; [8]
  Kb: 37.2 nM

## CC(COc1ccc(O)cc1)NCC(O)COc1c[nH]c(=O)c2ccccc12 (centres unmarked) [4-[3-{2-(4-hydroxyphenoxy)-1-methylethylamino{-2-hydroxy-propoxy]isocarbostyril]
[2]
  Antihypertensive effect: decrease in blood pressure: 26 mm Hg
[3]; [7]
  Kb: 102 nM
[1]; iv, I.V., read-out: LD50 I.V.
  LD50: 163 mg/kg
[1]; po, P.O., read-out: LD50 P.O.
  LD50: > 2000 mg/kg
[4]; [8]
  Kb: 2.95 nM
